#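 Protocol summary: plate cells (96-well), add compound at 5 concentrations, incubate 48 h, interpolate endpoints linearly. At the GI50, growth is halved.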 Active and inactive are the calls of the source. Rule as the data show it: active = GI50 up to about 1.1 µM and inactive = higher.
# Tests used:
# Experiment in all cases: DTP human tumour cell line panel, 48 h
# [1] = test system: A549
# [2] = test system: Malme-3M
# [3] = test system: RXF 393
# [4] = test system: UO-31
# [5] = test system: M19-MEL
# [6] = test system: MOLT-4
# [7] = test system: 786-0
# [8] = test system: NCI-H23
# [9] = test system: NCI-H522
# [10] = test system: SK-MEL-5
# [11] = test system: SK-MEL-2
# [12] = test system: SNB-78
# [13] = test system: TK-10
# [14] = test system: LXFL 529
# [15] = test system: KM12
# [16] = test system: OVCAR-8
# [17] = test system: HCC 2998
# [18] = test system: OVCAR-4
# [19] = test system: K562
# [20] = test system: DMS-114
# [21] = test system: RPMI-8226
# [22] = test system: SNB-75
# [23] = test system: HL-60
# [24] = test system: SK-MEL-28
# [25] = test system: EKVX
# [26] = test system: UACC-62
# [27] = test system: SF-268
# [28] = test system: HOP-92
# [29] = test system: SK-OV-3
# [30] = test system: ACHN
# [31] = test system: UACC-257
# [32] = test system: XF498
# [33] = test system: NCI-H460
# [34] = test system: M14
# [35] = test system: HT-29
# [36] = test system: LOX IMVI
# [37] = test system: SF-295
# [38] = test system: SNB-19
# [39] = test system: NCI-H226
# [40] = test system: HOP-62
# [41] = test system: OVCAR-5
# [42] = test system: COLO 205
# [43] = test system: HCT-116
# [44] = test system: DMS-273
# [45] = test system: CAKI-1
# [46] = test system: SN12C
# [47] = test system: U-251
# [48] = test system: KM-20L2
# [49] = test system: SW-620
# [50] = test system: SF-539
# [51] = test system: DLD-1
# [52] = test system: HOP-18
compound,measurement,setting,value
COc1ccc(CNc2cc(OC)cc(OC)c2)cc1,GI50,[1],> 100 µM (inactive)
same,GI50,[2],> 72.8 µM (inactive)
same,GI50,[3],> 68.4 µM (inactive)
same,GI50,[4],49.2 µM (inactive)
same,GI50,[5],> 100 µM (inactive)
same,GI50,[6],> 81.8 µM (inactive)
same,GI50,[7],> 52.2 µM (inactive)
same,GI50,[8],> 80.2 µM (inactive)
same,GI50,[9],35.8 µM (inactive)
same,GI50,[10],60.5 µM (inactive)
same,GI50,[11],> 85.7 µM (inactive)
same,GI50,[12],38.1 µM (inactive)
same,GI50,[13],> 100 µM (inactive)
same,GI50,[14],85.7 µM (inactive)
same,GI50,[15],84.3 µM (inactive)
same,GI50,[16],> 69.8 µM (inactive)
same,GI50,[17],> 100 µM (inactive)
same,GI50,[18],77.1 µM (inactive)
same,GI50,[19],22.4 µM (inactive)
same,GI50,[20],49 µM (inactive)
same,GI50,[21],58.9 µM (inactive)
same,GI50,[22],> 42 µM (inactive)
same,GI50,[23],> 46.5 µM (inactive)
same,GI50,[24],44.4 µM (inactive)
same,GI50,[25],> 76.6 µM (inactive)
same,GI50,[26],87.7 µM (inactive)
same,GI50,[27],> 62.1 µM (inactive)
same,GI50,[28],65.5 µM (inactive)
same,GI50,[29],> 80 µM (inactive)
same,GI50,[30],> 100 µM (inactive)
same,GI50,[31],> 91.8 µM (inactive)
same,GI50,[32],> 100 µM (inactive)
Cc1cc(-c2ccccc2)cc2[n+]1CC=C2.[O-][Cl+3]([O-])([O-])[O-],GI50,[1],> 100 µM (inactive)
same,GI50,[33],> 100 µM (inactive)
same,GI50,[2],75 µM (inactive)
same,GI50,[34],> 100 µM (inactive)
same,GI50,[35],52.7 µM (inactive)
same,GI50,[3],46.1 µM (inactive)
same,GI50,[36],> 100 µM (inactive)
same,GI50,[4],39.4 µM (inactive)
same,GI50,[5],> 100 µM (inactive)
same,GI50,[7],> 100 µM (inactive)
same,GI50,[37],> 100 µM (inactive)
same,GI50,[8],59.2 µM (inactive)
same,GI50,[38],> 100 µM (inactive)
same,GI50,[9],39.6 µM (inactive)
same,GI50,[11],> 100 µM (inactive)
same,GI50,[12],> 100 µM (inactive)
same,GI50,[13],46.6 µM (inactive)
same,GI50,[14],58.3 µM (inactive)
same,GI50,[39],45.6 µM (inactive)
same,GI50,[40],> 100 µM (inactive)
same,GI50,[41],> 100 µM (inactive)
same,GI50,[42],> 100 µM (inactive)
same,GI50,[43],> 100 µM (inactive)
same,GI50,[15],> 100 µM (inactive)
same,GI50,[16],> 100 µM (inactive)
same,GI50,[17],> 100 µM (inactive)
same,GI50,[18],> 100 µM (inactive)
same,GI50,[20],77.4 µM (inactive)
same,GI50,[44],46.7 µM (inactive)
same,GI50,[45],> 100 µM (inactive)
same,GI50,[22],35.2 µM (inactive)
same,GI50,[46],95.5 µM (inactive)
same,GI50,[23],72.3 µM (inactive)
same,GI50,[24],> 100 µM (inactive)
same,GI50,[25],54.6 µM (inactive)
same,GI50,[47],> 100 µM (inactive)
same,GI50,[48],> 100 µM (inactive)
same,GI50,[49],> 100 µM (inactive)
same,GI50,[27],> 100 µM (inactive)
same,GI50,[28],15.5 µM (inactive)
same,GI50,[30],51.4 µM (inactive)
same,GI50,[31],> 100 µM (inactive)
same,GI50,[50],> 100 µM (inactive)
same,GI50,[51],58.5 µM (inactive)
same,GI50,[52],< 0.01 µM (active)

# From ChEMBL document CHEMBL1201862, “PubChem BioAssay data set” (2004)
